Columns and labels:
[1] = target: T1, full-length human BTK (GST-BTK) (Homo sapiens, UniProt Q06187); test: Off-chip Mobility Shift Assay (MSA), tyrosine kinase inhibition, BTK; assay type: biochemical; conditions: for inhibition at 0.5 µM: 0.5 μM compound
T1 construct: made in house
Description: (§1) Compound A was dissolved in dimethylsulfoxide (DMSO), and further diluted with assay buffer to a final concentration of 0.5 μmol/L. Reference compounds for assay control were prepared similarly. For BTK inhibition studies, full-length human BTK [2-659 (end) amino acids of accession number NP_000052] was expressed as N-terminal GST-fusion protein (103 kDa) using baculovirus expressionsystem. GST-BTK was purified by using glutathione sepharose chromatography. For BTK[C481S] inhibition studies, full-length human BTK [2-659 (end) amino acids and C481S of accession number NP_000052] was expressed as N-terminal GST-fusion protein (103 kDa) using baculovirusexpression system. GST-BTK[C481S] was purified by using glutathione sepharosechromatography.
(§2) A 4× Substrate/ATP/Metal solution was prepared with buffer (20 mmol/L HEPES, 0.01% Triton X-100, 5 mmol/L DTT, pH 7.5), and a 2× kinase solution was also prepared with buffer (20 mmol/L HEPES, 0.01% Triton X-100, 1 mmol/L DTT, pH 7.5). 5 μL of 4× compound solution, 5 μL of 4× Substrate/ATP/Metal solution, and 10 μL of 2× kinase solution were mixed and incubated in a well of polypropylene 384 well microplate for 1 hour at room temperature. 70 μL of Termination Buffer (QuickScout Screening Assist MSA) was added to the well. The reaction mixture was applied to LabChip™ system, and the product and substrate peptide peaks were separated and quantitated. The kinase reaction was evaluated by the product ratio calculated from peak heights of product (P) and substrate (S) peptides (P/(P+S)).
(§3) The readout value of reaction control (complete reaction mixture) was set as a 0% inhibition, and the readout value of background (Enzyme(−)) was set as a 100% inhibition, then the percent inhibition of each test solution was calculated (Table 2).

[2] = target: T2, full-length human BTK[C481S] (GST-BTK[C481S]) (Homo sapiens, UniProt Q06187, C481S); test: Off-chip Mobility Shift Assay (MSA), tyrosine kinase inhibition, BTK[C481S]; assay type: biochemical; conditions: for inhibition at 0.5 µM: 0.5 μM compound
T2 construct: made in house
T2 sequence (Q06187 2-659 C481S): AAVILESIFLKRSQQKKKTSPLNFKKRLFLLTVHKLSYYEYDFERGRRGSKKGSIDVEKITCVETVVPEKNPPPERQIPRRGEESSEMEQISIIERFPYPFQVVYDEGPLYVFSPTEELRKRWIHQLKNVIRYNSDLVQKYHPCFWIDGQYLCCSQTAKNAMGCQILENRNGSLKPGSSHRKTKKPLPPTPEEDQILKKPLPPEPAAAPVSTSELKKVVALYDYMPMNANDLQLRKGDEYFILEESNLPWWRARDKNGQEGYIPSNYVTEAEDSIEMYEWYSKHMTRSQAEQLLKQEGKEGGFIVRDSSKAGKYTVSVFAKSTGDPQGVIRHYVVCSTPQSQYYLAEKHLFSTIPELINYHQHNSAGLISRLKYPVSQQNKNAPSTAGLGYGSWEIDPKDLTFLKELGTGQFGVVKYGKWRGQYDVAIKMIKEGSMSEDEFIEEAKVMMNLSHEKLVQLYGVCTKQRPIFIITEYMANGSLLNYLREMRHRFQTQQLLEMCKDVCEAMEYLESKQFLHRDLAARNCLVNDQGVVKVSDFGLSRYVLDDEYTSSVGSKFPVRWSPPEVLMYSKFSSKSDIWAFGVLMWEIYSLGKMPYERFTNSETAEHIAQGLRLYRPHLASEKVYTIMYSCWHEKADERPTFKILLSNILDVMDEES
Description: as §1, §2, §3

[3] = test system: pan cancer squamous lines; test: Sensitivity of cancer cell line panel (102 cell lines) to compound; assay type: cell-based; conditions: FIG. 1, p<0.05
From the text: Examples of squamous cell carcinomas contemplated herein may include, but are not limited to, cutaneous squamous cell carcinoma, esophageal squamous cell carcinoma, head and neck squamous cell carcinoma, squamous cell carcinoma of the vulva, and lung squamous cell carcinoma.
A shift to the left represents increased sensitivity. Size of circles represents number of cell lines with alteration (minimum of cell lines per alteration).

[4] = test system: Cal27 (tongue squamous cell carcinoma) xenograft; test: Cal27 mouse xenograft model, antitumor efficacy
Description: (§4) Prior to the in-life phase of the study, the animals were weighed and examined for signs of physical disorder. […] Tumor reads were collected every 2 days up to 28 days, starting treatment at 100 mm^3 tumor volume and ending at 2000 mm^3 tumor volume. A t-test was applied to determine the significance of differences in tumor volumes.
(§5) Dose materials were prepared weekly in aliquots and stored frozen at −20° C. until dosing. For enrollment of mice into study, subcutaneous tumor volumes were monitored daily until reaching a minimum palpable tumor volume (˜100 mm3 by caliper) in the required number of mice. […] Following randomization and study cohort assignment, each dose cohort was treated according to dosage and schedule. Mice were euthanized when study end points were reached.
(§6) Tumor volume measurements were performed every 2 days (up to 3 times per week) using a calibrated caliper. Tumor volumes were determined using the formula length (mm)×width (mm)×height (mm)×0.50.
(§7) A tumor volume humane endpoint was reached when a 20% loss in body weight (excluding tumor weight) was observed over a week, or a 15% loss in body weight over 2 to 3 day period, or if a body condition score less than 2 (Body Condition Scoring for scoring guide), or the tumor weight exceeded 10% of the non-tumor bearing body weight (tumor weight was calculated based on tumor height×length×width×0.50×density of 1 g/cm^3) or when the tumor exceeded 2000 mm^3 in size. Body weight measurements were performed every 2 days (up to 3 times per week) during the 28-day treatment period to coincide with tumor volume measurement schedule. A humane endpoint was reached when body weight loss exceeded 20%.
(§8) The abbreviation RTV28 (relative tumor volume, day 28)=[avg. tumor volume D28]/[avg. tumor volume at baseline]. The abbreviation TGI % (percent tumor growth inhibition)=(1−[RTV28 of the treated group]/[RTV28 vehicle])×100.

[5] = test system: KYSE70 (esophageal squamous cell carcinoma) xenograft; test: KYSE70 mouse xenograft model, antitumor efficacy; conditions: for Avg. Baseline Tumor Volume: 40 mg/kg
Description: as §4, §5, §6, §7, §8

[6] = 40 mg/kg oral once daily, 28 days, p≤0.001 vs vehicle on Day 27
[7] = (1-RTV28 treated/RTV28 vehicle)x100, 40 mg/kg oral once daily
[8] = Day 27, 40 mg/kg oral once daily
[9] = Day 28, 40 mg/kg oral once daily
[10] = avg. tumor volume D28 / baseline, 40 mg/kg oral once daily

T1 sequence (Q06187 2-659): as the sequence (Q06187 2-659 C481S) above, with S480C counted along it

COc1cc(-c2nn(CCN3CCC(N(C)C)CC3)c3ncnc(N)c23)ccc1NC(=O)OC(C)(C)C [Compound A, tert-Butyl (4-(4-amino-1-(2-(4-(dimethylamino)piperidin-1-yl)ethyl)-1H-pyrazolo[3,4-d]pyrimidin-3-yl)-2-methoxyphenyl)carbamate]
IC50 [1]: 12.5 nM | inhibition at 0.5 µM [1]: 96.9% | IC50 [2]: 16.3 nM | inhibition at 0.5 µM [2]: 95.1% | sensitivity of pan cancer squamous carcinomas (10logIC50) [3]: high sensitivity | tumor growth inhibition [4, 6]: substantial TGI | Tumor Growth Inhibition (TGI) [4, 7]: 86% | average tumor volume on Day 27 [4, 8]: 91.4 mm3 | mean percent increase from baseline in body weight [4, 8]: 2.1% | Avg. Day 28. Tumor Volume [4, 9]: 91.4 mm^3 | Relative Tumor Volume (RTV28) [4, 10]: 0.78 | Avg. Baseline Tumor Volume ([4]; baseline, 40 mg/kg oral once daily): 116.2 mm^3 | tumor growth inhibition [5, 6]: substantial tumor growth inhibition | Tumor Growth Inhibition (TGI) [5, 7]: 95% | average tumor volume on Day 27 [5, 8]: 31.5 mm^3 | mean percent increase from baseline in body weight [5, 8]: 2.0% | decrease in tumor volume from baseline ([5]; Day 27 vs baseline, 40 mg/kg oral once daily): 71% | Avg. Day 28. Tumor Volume [5, 9]: 31.5 mm^3 | Relative Tumor Volume (RTV28) [5, 10]: 0.29 | Avg. Baseline Tumor Volume ([5]; 40 mg/kg oral once daily): 109.8 mm^3 | Avg. Baseline Tumor Volume ([5]; 40 mg/kg oral once daily, listed as Cmpd A): 106.0 mm^3

CNC1CCN(CCn2nc(-c3ccc(NC(=O)OC(C)(C)C)c(OC)c3)c3c(N)ncnc32)CC1 [Compound B, tert-butyl (4-(4-amino-1-(2-(4-(methylamino)piperidin-1-yl)ethyl)-1H-pyrazolo[3,4-d]pyrimidin-3-yl)-2-methoxyphenyl) carbamate]
IC50 [1]: 12.5 nM | inhibition at 0.5 µM [1]: 95.6% | IC50 [2]: 16.3 nM | inhibition at 0.5 µM [2]: 97.5%
